pEC50: −log10 of the molar value.

In one experiment the test system is Z-138 cell line. The experiment in a line: Z-138 Proliferation Assay (Cell-Titer Glo, 5 days). The class given is cell-based. The conditions noted are these: Z-138 cells. From the text:
[formula] Z-138 Proliferation Assay
Z-138 suspension cells were purchased from ATCC (American Type Culture Collection, Manassas, Va.). RPMI/Glutamax medium, penicillin-streptomycin, heat inactivated fetal bovine serum were purchased from Life Technologies, Grand Island, N.Y., USA. V-bottom polypropylene 384-well plates were purchased from Greiner Bio-One, Monroe, N.C., USA. Cell culture 384-well white opaque plates were purchased from Perkin Elmer, Waltham, Mass., USA. Cell-Titer Glo® was purchased from Promega Corporation, Madison, Wis., USA. SpectraMax M5 plate reader was purchased from Molecular Devices LLC, Sunnyvale, Calif., USA. […] Cell viability was measured by quantitation of ATP present in the cell cultures, adding […] of Cell Titer Glo® reagent to the cell plates. Luminescence was read in the SpectraMax M5 microplate reader. The concentration of compound inhibiting cell viability by 50% was determined using a 4-parametric fit of the normalized dose response curves.

For experiment [1], the system named is symmetric di-methyl arginine in Z-138 cells. The experiment in a line: Z-138 Methylation Assay (In Cell Western for symmetric di-methyl arginine and DNA content). Format: cell-based. The conditions noted are these: read-out: ICW EC50. From the text: [formula] [formula] Where top and bottom are the normally allowed to float, but may be fixed at 100 or 0 respectively in a 3-parameter fit. The Hill Coefficient normally allowed to float but may also be fixed at 1 in a 3-parameter fit. Y is the % inhibition and X is the compound concentration. Z-138 Methylation Assay
Z-138 suspension cells were purchased from ATCC (American Type Culture Collection, Manassas, Va.). RPMI/Glutamax medium, penicillin-streptomycin, heat inactivated fetal bovine serum, and D-PBS were purchased from Life Technologies, Grand Island, N.Y., USA. Odyssey blocking buffer, 800CW goat anti-rabbit IgG (H+L) antibody, and Licor Odyssey infrared scanner were purchased from Licor Biosciences, Lincoln, Nebr., USA. Symmetric di-methyl arginine antibody was purchased from EMD Millipore, Billerica, Mass., USA. 16% Paraformaldehyde was purchased from Electron Microscopy Sciences, Hatfield, Pa., USA. Z-138 suspension cells were maintained in growth medium (RPMI 1640 supplemented with 10% v/v heat inactivated fetal bovine serum and 100 units/mL penicillin-streptomycin) and cultured at 37° C. under 5% CO2.
Cell Treatment, in Cell Western (ICW) for Detection of Symmetric Di-Methyl Arginine and DNA Content.
Z-138 cells were seeded in assay medium at a concentration of 50,000 cells per mL to a 384-well cell culture plate with 50 μL per well. Compound (100 nL) from 384 well source plates was added directly to 384 well cell plate. Plates were incubated at 37° C., 5% CO2 for 96 hours. […]
First, the ratio for each well was determined by:
Each plate included fourteen control wells of DMSO only treatment (minimum inhibition) as well as fourteen control wells for maximum inhibition treated with 3 μM of a reference compound (Background wells). The average of the ratio values for each control type was calculated and used to determine the percent inhibition for each test well in the plate. […] Percent inhibition was determined and IC50 curves were generated using triplicate wells per concentration of compound. […]

With “N-(3-(3-(3,4-dihydroisoquinolin-2(1H)-yl)-2-hydroxypropoxy)phenyl)pyrimidine-5-carboxamide [Compound 145]”, the pEC50 is less than 4.70 with Z-138 cell line and 5.00 to 6.00 in experiment [1].

On to `OC(COc1cccc(-c2ccc3cn[nH]c3c2)c1)CN1CCc2ccccc2C1` (stereo not shown) [Compound 58, 1-(3-(1H-indazol-6-yl)phenoxy)-3-(3,4-dihydroisoquinolin-2(1H)-yl)propan-2-ol], for which the pEC50 is 4.40 to 5.00 in the experiment with Z-138 cell line and 5.00 to 6.00 in experiment [1].

Source of the values: US9777008B2, “PRMT5 inhibitors and uses thereof” (Epizyme, Inc., priority 2012, dated 2017).
